Data: PMC9603373 (Microbiology Spectrum, 2022)
Where two headings read alike, the source gives them in different places.

Tests used:
[1] = Single-dose pharmacokinetics in healthy rats; conditions: plasma
Procedure: The experiments were performed in triplicate. […] Plasma was collected via centrifugation, and the samples were stored at −80°C until analysis.
All of the UHPLC-ESI-MS/MS analyses were performed using an Agilent 1290 UHPLC system coupled with an Agilent 6460 triple quadrupole mass spectrometer (Agilent Technologies, Santa Clara, CA, USA).

[2] = human healthy volunteers, cited from earlier work; for cmax: mean
Procedure: Therefore, 45 mg/kg s.c. and 90 mg/kg s.c might represent human doses of 8 mg/kg and 12 mg/kg, respectively ([34]). […] Since the efficacy was much more pronounced in the infrequently administered dosing regimens, Cmax/MIC is likely the most predictive ([35], [36]). The selected rat dose from which to simulate the human dose is slightly different from the others ([37][–][39 ...

CCCCCCCCCC(=O)N[C@@H](Cc1c[nH]c2ccccc12)C(=O)N[C@H](CC(N)=O)C(=O)N[C@@H](CC(=O)O)C(=O)N[C@@H]1C(=O)NCC(=O)N[C@@H](CCCN)C(=O)N[C@@H](CC(=O)O)C(=O)N[C@H](C)C(=O)N[C@@H](CC(=O)O)C(=O)NCC(=O)N[C@H](CO)C(=O)N[C@@H]([C@H](C)CC(=O)O)C(=O)N[C@@H](CC(=O)c2ccccc2N)C(=O)O[C@@H]1C [daptomycin, Daptomycin]
conc ([1]; single dose 12 mg/kg i.v., time 5 h, rat id 3): 12
conc ([1]; single dose 12 mg/kg i.v., time 8 h, rat id 1): 7
conc ([1]; single dose 12 mg/kg i.v., time 8 h, rat id 2): 3.76
conc ([1]; single dose 12 mg/kg i.v., time 8 h, rat id 3): 2.45
conc ([1]; single dose 12 mg/kg i.v., time 12 h, rat id 1): 1.45
conc ([1]; single dose 12 mg/kg i.v., time 12 h, rat id 2): 0
conc ([1]; single dose 12 mg/kg i.v., time 12 h, rat id 3): 1.2
conc ([1]; single dose 12 mg/kg i.v., time 24 h, rat id 1): 0
conc ([1]; single dose 12 mg/kg i.v., time 24 h, rat id 2): 0
conc ([1]; single dose 12 mg/kg i.v., time 24 h, rat id 3): 0
conc ([1]; single dose 45 mg/kg s.c., time 0 h, rat id 1): 4
conc ([1]; single dose 45 mg/kg s.c., time 0 h, rat id 2): 3.71
conc ([1]; single dose 45 mg/kg s.c., time 0 h, rat id 3): 2
conc ([1]; single dose 45 mg/kg s.c., time 0.5 h, rat id 1): 16
conc ([1]; single dose 45 mg/kg s.c., time 0.5 h, rat id 2): 19
conc ([1]; single dose 45 mg/kg s.c., time 0.5 h, rat id 3): 26
conc ([1]; single dose 45 mg/kg s.c., time 1 h, rat id 1): 55
conc ([1]; single dose 45 mg/kg s.c., time 1 h, rat id 2): 40
conc ([1]; single dose 45 mg/kg s.c., time 1 h, rat id 3): 44
conc ([1]; single dose 45 mg/kg s.c., time 2 h, rat id 1): 98
conc ([1]; single dose 45 mg/kg s.c., time 2 h, rat id 2): 64
conc ([1]; single dose 45 mg/kg s.c., time 2 h, rat id 3): 72
conc ([1]; single dose 45 mg/kg s.c., time 3 h, rat id 1): 82
conc ([1]; single dose 45 mg/kg s.c., time 3 h, rat id 2): 109
conc ([1]; single dose 45 mg/kg s.c., time 3 h, rat id 3): 142
conc ([1]; single dose 45 mg/kg s.c., time 4 h, rat id 1): 117
conc ([1]; single dose 45 mg/kg s.c., time 4 h, rat id 2): 89
conc ([1]; single dose 45 mg/kg s.c., time 4 h, rat id 3): 106
conc ([1]; single dose 45 mg/kg s.c., time 5 h, rat id 1): 93
conc ([1]; single dose 45 mg/kg s.c., time 5 h, rat id 2): 95
conc ([1]; single dose 45 mg/kg s.c., time 5 h, rat id 3): 84
conc ([1]; single dose 45 mg/kg s.c., time 8 h, rat id 1): 63
conc ([1]; single dose 45 mg/kg s.c., time 8 h, rat id 2): 68
conc ([1]; single dose 45 mg/kg s.c., time 8 h, rat id 3): 88
conc ([1]; single dose 45 mg/kg s.c., time 12 h, rat id 1): 52
conc ([1]; single dose 45 mg/kg s.c., time 12 h, rat id 2): 37
conc ([1]; single dose 45 mg/kg s.c., time 12 h, rat id 3): 29
conc ([1]; single dose 45 mg/kg s.c., time 24 h, rat id 1): 0.82
conc ([1]; single dose 45 mg/kg s.c., time 24 h, rat id 2): 0
conc ([1]; single dose 45 mg/kg s.c., time 24 h, rat id 3): 0.52
conc ([1]; single dose 90 mg/kg s.c., time 0 h, rat id 1): 5
conc ([1]; single dose 90 mg/kg s.c., time 0 h, rat id 2): 7
conc ([1]; single dose 90 mg/kg s.c., time 0 h, rat id 3): 4
conc ([1]; single dose 90 mg/kg s.c., time 0.5 h, rat id 1): 53
conc ([1]; single dose 90 mg/kg s.c., time 0.5 h, rat id 2): 42
conc ([1]; single dose 90 mg/kg s.c., time 0.5 h, rat id 3): 51
conc ([1]; single dose 90 mg/kg s.c., time 1 h, rat id 1): 58
conc ([1]; single dose 90 mg/kg s.c., time 1 h, rat id 2): 80
conc ([1]; single dose 90 mg/kg s.c., time 1 h, rat id 3): 57
conc ([1]; single dose 90 mg/kg s.c., time 2 h, rat id 1): 116
conc ([1]; single dose 90 mg/kg s.c., time 2 h, rat id 2): 143
conc ([1]; single dose 90 mg/kg s.c., time 2 h, rat id 3): 129
conc ([1]; single dose 90 mg/kg s.c., time 3 h, rat id 1): 125
conc ([1]; single dose 90 mg/kg s.c., time 3 h, rat id 2): 175
conc ([1]; single dose 90 mg/kg s.c., time 3 h, rat id 3): 200
conc ([1]; single dose 90 mg/kg s.c., time 4 h, rat id 1): 161
conc ([1]; single dose 90 mg/kg s.c., time 4 h, rat id 2): 148
conc ([1]; single dose 90 mg/kg s.c., time 4 h, rat id 3): 143
conc ([1]; single dose 90 mg/kg s.c., time 5 h, rat id 1): 158
conc ([1]; single dose 90 mg/kg s.c., time 5 h, rat id 2): 168
conc ([1]; single dose 90 mg/kg s.c., time 5 h, rat id 3): 179
conc ([1]; single dose 90 mg/kg s.c., time 8 h, rat id 1): 128
conc ([1]; single dose 90 mg/kg s.c., time 8 h, rat id 2): 151
conc ([1]; single dose 90 mg/kg s.c., time 8 h, rat id 3): 170
conc ([1]; single dose 90 mg/kg s.c., time 12 h, rat id 1): 78
conc ([1]; single dose 90 mg/kg s.c., time 12 h, rat id 2): 116
conc ([1]; single dose 90 mg/kg s.c., time 12 h, rat id 3): 84
conc ([1]; single dose 90 mg/kg s.c., time 24 h, rat id 1): 2
conc ([1]; single dose 90 mg/kg s.c., time 24 h, rat id 2): 6.44
conc ([1]; single dose 90 mg/kg s.c., time 24 h, rat id 3): 3.35
AUC0–24 ([2]; 8 mg/kg i.v.): 858.2 (24.9) mg × h/L
AUC0–24 ([2]; 12 mg/kg i.v.): 1,277.4 (19.8) mg × h/L
cmax ([2]; daily dose 8 mg/kg i.v.): 123.3 (13.0) mg/L
cmax ([2]; daily dose 12 mg/kg i.v.): 183.7 (13.6) mg/L
